We go through four compounds from ChEMBL document CHEMBL1212744, “Relative contributions of active mediated transport and passive diffusion of fluoroquinolones with various lipophilicities in a Calu-3 lung epithelial cell model” (Antimicrob Agents Chemother, 2010).

Structures are written as SMILES.

Broadly, the logD is lipophilicity at a set pH, counting ionised and neutral species. Lower therefore signals a more hydrophilic compound. In general, Papp A→B refers to the apparent permeability from the apical to the basolateral side of a cell layer. The Papp B→A is how fast a substance crosses the layer from the basolateral side. For orientation: efflux ratio means the permeability from basolateral to apical divided by that in the opposite direction, in the common usage.

The nature of data set [1]: Distribution coefficient, log D of the compound. Conditions: octanol/water.
Data set [2] can be described thus: Apparent permeability across apical to basolateral side in human Calu3 cells.
The nature of data set [3]: Apparent permeability across basolateral to apical side in human Calu3 cells.
Data set [4] is described as follows: Efflux ratio of apparent permeability across basolateral to apical side over apical to basolateral side in human Calu3 cells.

Compound `Cc1c(F)c(N2CCNC(C)C2)cc2c1c(=O)c(C(=O)O)cn2C1CC1` (stereo unspecified) [GREPAFLOXACIN] displayed a pH-dependent lipophilicity (logD) in data set [1] of 0.03. In addition, in data set [2], the Papp A→B is 3.1 ×10⁻⁶ cm/s. The Papp B→A in data set [3] turned out to be 11.8 ×10⁻⁶ cm/s. Further, the efflux ratio in data set [4] turned out to be 3.8.

Turning to `C[C@H]1COc2c(N3CCN(C)CC3)c(F)cc3c(=O)c(C(=O)O)cn1c23.C[C@H]1COc2c(N3CCN(C)CC3)c(F)cc3c(=O)c(C(=O)O)cn1c23.O` [LEVOFLOXACIN], the logD in data set [1] is given as -0.41.

As to `COc1c(N2C[C@@H]3CCCN[C@@H]3C2)c(F)cc2c(=O)c(C(=O)O)cn(C3CC3)c12` [MOXIFLOXACIN], in data set [2], the Papp A→B came out at 5 ×10⁻⁶ cm/s. For the same compound, in data set [3], the Papp B→A was 10.4 ×10⁻⁶ cm/s.

In the case of `CCn1cc(C(=O)O)c(=O)c2cc(F)c(N3CCNCC3)cc21` [NORFLOXACIN], in data set [1], the logD was -1.16. For the same compound, the Papp A→B in data set [2] was 0.6 ×10⁻⁶ cm/s. For the same compound, the Papp B→A in data set [3] worked out at 2 ×10⁻⁶ cm/s. In addition, the efflux ratio in data set [4] was found to be 3.3.
